Patent US11090304B2 (Amgen Inc., priority 2018, dated 2021)
Like-named read-outs stand apart in the source and are kept apart here.

Assays:
[1] = target: GDP-bound KRAS protein (aa 1-169), containing both G12C and C118A amino acid substitutions (Homo sapiens, UniProt P01116, C118A/G12C); assay: Coupled nucleotide exchange assay (SOS-mediated, AlphaScreen); type: biochemical; conditions: 5 min compound pre-incubation; for IC50: read-out: Coupled exchange IC50 (5 min)
[2] = system: Phosphorylation of ERK1/2 in MIA PaCa-2 cells; assay: Phospho-ERK1/2 MSD assay in MIA PaCa-2 cells; type: cell-based; conditions: read-out: p-ERK IC50 (2 h; MIA PaCa-2), 2 h compound treatment
How it was run: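 In the procedure, cells were plated a day ahead at 25,000 per well. Next, a dilution series of compound in growth medium was added for 2 or 4 h. EGF (10 ng/mL) stimulation for 10 min preceded washing and RIPA lysis. Lysate phospho-ERK1/2 was read by MSD, with IC50 derived by 4-parameter logistic analysis.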

GDP-bound KRAS protein (aa 1-169), containing both G12C and C118A amino acid substitutions, sequence (P01116 1-169 isoform P01116-2 G12C/C118A): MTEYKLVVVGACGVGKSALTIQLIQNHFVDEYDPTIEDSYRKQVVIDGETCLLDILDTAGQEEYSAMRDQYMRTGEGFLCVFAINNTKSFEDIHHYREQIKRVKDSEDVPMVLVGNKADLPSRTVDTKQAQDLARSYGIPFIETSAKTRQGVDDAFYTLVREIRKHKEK

SMILES	Coupled exchange IC50 (5 min) [1]	IC50 [2] [nM]	IC50 ([2]; Homo sapiens, MIA PaCa-2, 2 h) [nM]	IC50 [1] [nM]
C=CC(=O)N1CCN(c2nc(=O)n(-c3c(C)ccnc3C(C)C)c3nc(-c4ccccc4F)c(C)cc23)[C@@H](C)C1 (single isomer, unassigned) [Example 74-2-2]	2.325 | nda μM	1040		
C=CC(=O)N1CCN(c2nc(=O)n(-c3cn(Cc4ccccc4)nc3C3CC3)c3nc(-c4c(O)cccc4F)c(Cl)cc23)[C@@H](C)C1 [Example 55-20, 1-(1-benzyl-3-cyclopropyl-1H-pyrazol-4-yl)-6-chloro-7-(2-fluoro-6-hydroxyphenyl)-4-((2S)-2-methyl-4-(2-propenoyl)-1-piperazinyl)pyrido[2,3-d]pyrimidin-2(1H)-one]	0.695 | nda μM		2670	
C=CC(=O)N1CCN(c2nc(=O)n(-c3ccnn3C(C)C)c3nc(-c4c(O)cccc4F)c(Cl)cc23)[C@@H](C)C1 [Example 54-25, 6-chloro-7-(2-fluoro-6-hydroxy-phenyl)-4-((2S)-2-methyl-4-(2-propenoyl)-1-piperazinyl)-1-(1-(2-propanyl)-1H-pyrazol-5-yl)pyrido[2,3-d]pyrimidin-2(1H)-one]			218	164
C=CC(=O)N1CCN(c2nc(=O)n(-c3c(C)cccc3CC)c3nc(-c4ccccc4F)c(Cl)cc23)[C@@H](C)C1 [Example 55-9, 6-chloro-1-(2-ethyl-6-methylphenyl)-7-(2-fluorophenyl)-4-((2S)-2-methyl-4-(2-propenoyl)-1-piperazinyl)pyrido[2,3-d]pyrimidin-2(1H)-one]	0.24 | nda μM		214	
C=CC(=O)N1CCN(c2nc(=O)n(-c3cccnc3C(C)C)c3nc(-c4c(O)cccc4F)c(Cl)cc23)[C@@H](C)C1 (single isomer, unassigned) [Example 54-11-2]	0.343 | nda μM	174		
C=CC(=O)N1CCN(c2nc(=O)n(-c3c(C)ccnc3C(C)C)c3nc(-c4c(F)ccc(C)c4O)c(F)cc23)[C@@H](C)C1 (atropisomer, axis not shown; (M)) [Example 72-10, (M)-6-fluoro-7-(6-fluoro-2-hydroxy-3-methylphenyl)-1-(4-methyl-2-(2-propanyl)-3-pyridinyl)-4-((2S)-2-methyl-4-(2-propenoyl)-1-piperazinyl)pyrido[2,3-d]pyrimidin-2(1H)-one]	0.158 | nda μM		150	
C=CC(=O)N1CCN(c2nc(=O)n(-c3c(CO)ccnc3C(C)C)c3nc(-c4ccccc4F)c(Cl)cc23)[C@@H](C)C1 (single isomer, unassigned) [Example 84-2]	0.058 | nda μM		43	
C=CC(=O)N1CCN(c2nc(=O)n(-c3c(OC)cccc3C(C)C)c3nc(-c4c(O)cccc4F)c(Cl)cc23)[C@@H](C)C1 (single isomer, unassigned) [Example 54-73-2]	0.368 | nda μM	927		
C=CC(=O)N1CCN(c2nc(=O)n(-c3c(C(C)C)ncc(O)c3C)c3nc(-c4ccccc4F)c(Cl)cc23)[C@@H](C)C1 (single isomer, unassigned) [Example 83-2]	0.035 | nda μM		84	
C=CC(=O)N1CCN(c2nc(=O)n(-c3c(C)cccc3C(C)(C)C)c3nc(-c4c(O)cccc4F)c(F)cc23)[C@@H](C)C1 [Example 57-17, 6-fluoro-7-(2-fluoro-6-hydroxyphenyl)-1-(2-methyl-6-(2-methyl-2-propanyl)phenyl)-4-((2S)-2-methyl-4-(2-propenoyl)-1-piperazinyl)pyrido[2,3-d]pyrimidin-2(1H)-one]	0.574 | nda μM		1440	
C=CC(=O)N1CCN(c2nc(=O)n(-c3c(C)cc(CN(C)C)cc3C(C)C)c3nc(-c4ccccc4F)c(Cl)cc23)[C@@H](C)C1 (single isomer, unassigned) [Example 80-1-1]	0.044 | nda μM	29		
C=CC(=O)N1CCN(c2nc(=O)n(-c3c(CO)cccc3C(C)C)c3nc(-c4ccccc4F)c(Cl)cc23)[C@@H](C)C1 (single isomer, unassigned) [Example 55-43-2]	0.022 | nda μM		32	
C=CC(=O)N1CCN(c2nc(=O)n(-c3cncnc3C(C)(C)C)c3nc(-c4ccccc4F)c(Cl)cc23)[C@@H](C)C1 (single isomer, unassigned) [Example 54-110-2]	0.194 | nda μM		119	
C=CC(=O)N1CCN(c2nc(=O)n(-c3c(C)noc3C(C)C)c3nc(-c4ccccc4F)c(Cl)cc23)[C@@H](C)C1 [Example 55-11, 6-chloro-7-(2-fluoropheny)-1-(3-methyl-5-(2-propanyl)-1,2-oxazol-4-yl)-4-((2S)-2-methyl-4-(2-propenoyl)-1-piperazinyl)pyrido[2,3-d]pyrimidin-2(1H)-one]	0.309 | nda μM		235	
C=CC(=O)N1CCN(c2nc(=O)n(-c3c(C)ccnc3C(C)C)c3nc(-c4c(F)ccc(F)c4O)c(F)cc23)[C@@H](C)C1 (atropisomer, axis not shown; (M)) [Example 72-9, (M)-7-(3,6-difluoro-2-hydroxyphenyl)-6-fluoro-1-(4-methyl-2-(2-propanyl)-3-pyridinyl)-4-((2S)-2-methyl-4-(2-propenoyl)-1-piperazinyl)pyrido[2,3-d]pyrimidin-2(1H)-one]	0.191 | nda μM		554	
C=CC(=O)N1CCN(c2nc(=O)n(-c3cccnc3C(C)C)c3nc(-c4c(O)cccc4F)c(Cl)cc23)[C@@H](C)C1 (single isomer, unassigned) [Example 54-11-1]	0.049 | nda μM	54		
C=CC(=O)N1CCN(c2nc(=O)n(-c3c(Cl)cccc3C(C)C)c3nc(-c4c(O)cccc4F)c(F)cc23)[C@@H](C)C1 (single isomer, unassigned) [Example 57-15-1]	0.089 | nda μM	104		
C=CC(=O)N1CCN(c2nc(=O)n(-c3cccnc3C(C)(C)C)c3nc(-c4ccccc4F)c(Cl)cc23)[C@@H](C)C1 (single isomer, unassigned) [Example 54-112-1]	0.075 | nda μM		125	
C=CC(=O)N1CCN(c2nc(=O)n(-c3c(C)ccnc3C(C)C)c3nc(-c4ccccc4F)c(F)cc23)[C@@H](C)C1 [Example 58-4, 6-fluoro-7-(2-fluorophenyl)-1-(4-methyl-2-(2-propanyl)-3-pyridinyl)-4-((2S)-2-methyl-4-(2-propenoyl)-1-piperazinyl)pyrido[2,3-d]pyrimidin-2(1H)-one]	0.395 | nda μM		183	
C=CC(=O)N1CCN(c2nc(=O)n(-c3ccccc3C(C)C)c3nc(-c4cc(O)cc(Cl)c4Cl)c(Cl)cc23)[C@@H](C)C1 (single isomer, unassigned) [Example 54-91-2]	0.181 | nda μM	509		
C=CC(=O)N1CCN(c2nc(=O)n(-c3c(C)ccnc3C(C)C)c3nc(-c4cc(O)cc(Cl)c4Cl)c(F)cc23)[C@@H](C)C1 (single isomer, unassigned) [Example 58-7-1]	0.335 | nda μM	1840		
C=CC(=O)N1CCN(c2nc(=O)n(-c3c(C)nc(C)nc3C(C)C)c3nc(-c4c(O)cccc4F)c(Cl)cc23)[C@@H](C)C1 (single isomer, unassigned) [Example 55-4-1]	0.023 | nda μM		37	
C=CC(=O)N1CCN(c2nc(=O)n(-c3c(C)ncnc3C3CC3)c3nc(-c4ccccc4F)c(Cl)cc23)[C@@H](C)C1 (single isomer, unassigned) [Example 60-30-2]	0.108 | nda μM		81	
C=CC(=O)N1CCN(c2nc(=O)n(-c3c(C)ccnc3C(C)C)c3nc(-c4ccc(F)cc4F)c(F)cc23)[C@@H](C)C1 [Example 58-10, 7-(2,4-difluorophenyl)-6-fluoro-1-(4-methyl-2-(2-propanyl)-3-pyridinyl)-4-((2S)-2-methyl-4-(2-propenoyl)-1-piperazinyl)pyrido[2,3-d]pyrimidin-2(1H)-one]	0.445 | nda μM		433	
C=CC(=O)N1CCN(c2nc(=O)n(-c3ncccc3C(=C)C)c3nc(-c4c(O)cccc4F)c(Cl)cc23)[C@@H](C)C1 [Example 55-24, 6-chloro-7-(2-fluoro-6-hydroxyphenyl)-4-((2S)-2-methyl-4-(2-propenoyl)-1-piperazinyl)-1-(3-(1-propen-2-yl)-2-pyridinyl)pyrido[2,3-d]pyrimidin-2(1H)-one]	0.113 | nda μM		74	
C=CC(=O)N1CCN(c2nc(=O)n(-c3c(C)ccnc3C(C)C)c3nc(-c4cc(N)ccc4Cl)c(F)cc23)[C@@H](C)C1 [Example 58-8, 7-(5-amino-2-chlorophenyl)-6-fluoro-1-(4-methyl-2-(2-propanyl)-3-pyridinyl)-4-((2S)-2-methyl-4-(2-propenoyl)-1-piperazinyl)pyrido[2,3-d]pyrimidin-2(1H)-one]	0.393 | nda μM		437	
C=CC(=O)N1CCN(c2nc(=O)n(-c3c(C)cccc3C(C)C)c3nc(-c4ccccc4F)c(Cl)cc23)[C@@H](C)C1 (atropisomer, axis not shown; (M)) [Example 64-1, (M)-6-Chloro-7-(2-fluorophenyl)-1-(2-methyl-6-(2-propanyl)phenyl)-4-((2S)-2-methyl-4-(2-propenoyl)-1-piperazinyl)pyrido[2,3-d]pyrimidin-2(1H)-one]		76		44
